Assay results from the NIST ThermoML archive (doi:10.1016/j.jct.2015.06.023).

Legend:
[1] = Liquid; for mass density: 101.33 kPa, Vibrating tube method; for vapor or sublimation pressure: 363.2 K, Closed cell (Static) method
[2] = excess molar enthalpy (molar enthalpy of mixing); xn = mol fraction of the nth substance listed; conditions: 363.2 K, 100 kPa, Liquid, Flow calorimetry
[3] = activity coefficient (dimensionless); of the first substance listed, at infinite dilution; xn = mol fraction of the nth substance listed; conditions: 100 kPa, Liquid, Chromatography, x1 = 0

CCCCCC[n+]1ccccc1.O=S(=O)([N-]S(=O)(=O)C(F)(F)F)C(F)(F)F [1-hexylpyridinium bis(trifluromethylsulfonyl)imide]
[1]
Conditions	mass density [kg/m3]
293.15 K	1389.16
298.15 K	1384.56
299.15 K	1383.67
303.15 K	1380.22
313.15 K	1371.26
323.15 K	1362.38
333.15 K	1353.54
343.15 K	1344.76
353.15 K	1336.02

CCCCCC[n+]1ccccc1.O=S(=O)([N-]S(=O)(=O)C(F)(F)F)C(F)(F)F [1-hexylpyridinium bis(trifluromethylsulfonyl)imide] + CCCCO
[2]
Conditions	excess molar enthalpy [kcal/mol]
x2 = 0.043	0.0722
x2 = 0.083	0.14
x2 = 0.157	0.258
x2 = 0.222	0.356
x2 = 0.282	0.436
x2 = 0.384	0.55
x2 = 0.469	0.619
x2 = 0.572	0.661
x2 = 0.655	0.652
x2 = 0.743	0.594
x2 = 0.812	0.505
x2 = 0.868	0.399
x2 = 0.914	0.284
x2 = 0.952	0.168
x2 = 0.985	0.0549

CCCCCC[n+]1ccccc1.O=S(=O)([N-]S(=O)(=O)C(F)(F)F)C(F)(F)F [1-hexylpyridinium bis(trifluromethylsulfonyl)imide] + CCCO
[2]
Conditions	excess molar enthalpy [kcal/mol]
x2 = 0.052	0.0851
x2 = 0.1	0.165
x2 = 0.185	0.299
x2 = 0.259	0.402
x2 = 0.324	0.483
x2 = 0.432	0.589
x2 = 0.519	0.643
x2 = 0.621	0.661
x2 = 0.699	0.633
x2 = 0.779	0.56
x2 = 0.841	0.462
x2 = 0.889	0.358
x2 = 0.928	0.251
x2 = 0.961	0.146
x2 = 0.988	0.0477

c1ccccc1 [benzene] + CCCCCC[n+]1ccccc1.O=S(=O)([N-]S(=O)(=O)C(F)(F)F)C(F)(F)F
[3]
Conditions	activity coefficient
303.2 K	0.639
313.2 K	0.655
323.2 K	0.627
333.2 K	0.657
343.2 K	0.605

CCCCO [butan-1-ol]
Conditions	vapor or sublimation pressure [kPa]
[1]	34.47

CCCCO [butan-1-ol] + CCCCCC[n+]1ccccc1.O=S(=O)([N-]S(=O)(=O)C(F)(F)F)C(F)(F)F
[3]
Conditions	activity coefficient
303.2 K	2.74
313.2 K	1.72
323.2 K	1.59
333.2 K	1.42
343.2 K	1.25

C1CCCCC1 [cyclohexane] + CCCCCC[n+]1ccccc1.O=S(=O)([N-]S(=O)(=O)C(F)(F)F)C(F)(F)F
[3]
Conditions	activity coefficient
303.2 K	5.19
313.2 K	4.86
323.2 K	4.68
333.2 K	4.41
343.2 K	4.3

CCO [ethanol] + CCCCCC[n+]1ccccc1.O=S(=O)([N-]S(=O)(=O)C(F)(F)F)C(F)(F)F
[3]
Conditions	activity coefficient
303.2 K	1.64
313.2 K	1.35
323.2 K	1.28
333.2 K	1.13
343.2 K	0.996

CCCO [propan-1-ol]
Conditions	vapor or sublimation pressure [kPa]
[1]	76.56

CCCO [propan-1-ol] + CCCCCC[n+]1ccccc1.O=S(=O)([N-]S(=O)(=O)C(F)(F)F)C(F)(F)F
[3]
Conditions	activity coefficient
303.2 K	1.98
313.2 K	1.49
323.2 K	1.47
333.2 K	1.26
343.2 K	1.15

Cc1ccccc1 [toluene] + CCCCCC[n+]1ccccc1.O=S(=O)([N-]S(=O)(=O)C(F)(F)F)C(F)(F)F
[3]
Conditions	activity coefficient
303.2 K	0.828
313.2 K	0.868
323.2 K	0.82
333.2 K	0.847
343.2 K	0.882
